Test results from US9745328B2, “Flap modulators” (JANSSEN PHARMACEUTICA NV, priority 2013, dated 2017).
Where a name gives a salt, the structure may show the parent alone.

Molecular target: human FLAP (Homo sapiens (Human), UniProt P20292)
Test: FLAP binding assay (HTRF format)
Conditions: Table 6 (additional runs), human FLAP wild type
Outline: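 Read-out is the HTRF ratio. Each reported figure averages two assay plates on which samples were tested in duplicate.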

Chain of human FLAP (P20292 whole entry): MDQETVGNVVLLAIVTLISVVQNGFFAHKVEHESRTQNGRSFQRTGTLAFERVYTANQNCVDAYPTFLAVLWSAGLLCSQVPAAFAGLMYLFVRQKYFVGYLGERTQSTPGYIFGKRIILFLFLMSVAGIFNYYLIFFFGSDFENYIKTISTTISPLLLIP

First: Nc1ncc(-c2ccc(-c3ccccc3Sc3ccnc(N)n3)cc2F)cn1 [Example 335, 4-{[4′-(2-Aminopyrimidin-5-yl)-3′-fluorobiphenyl-2-yl]sulfanyl}pyrimidin-2-amine formate salt]
Second: CCSc1ccccc1-c1ccc(-c2cnc3[nH]ccc3n2)c(F)c1 [Example 384, 2-[2′-(Ethylsulfanyl)-3-fluorobiphenyl-4-yl]-5H-pyrrolo[2,3-b]pyrazine]
The Ki of the first is 2.1-fold lower: 1.9 nM for the first, 3.9 nM for the second.

Compared with `CC(C)(C)NS(=O)(=O)c1ccccc1-c1ccc(-c2ccc(N)nc2)c(F)c1` [Example 342], `CCC(C)(C)NS(=O)(=O)c1ccccc1-c1ccc(-c2ccc(N)nc2)c(F)c1` [Example 349, 4′-(6-aminopyridin-3-yl)-3′-fluoro-N-(tert-pentyl)-[1,1′-biphenyl]-2-sulfonamide] is 2-fold lower in Ki: 1.8 nM for the first, 0.9 nM for the second. The second binds more tightly here.

Going from `CCN(CC)S(=O)(=O)c1ccccc1-c1ccc(-c2ccc(N)nc2)c(F)c1` [Example 343, 4′-(6-aminopyridin-3-yl)-N,N-diethyl-3′-fluoro-[1,1′-biphenyl]-2-sulfonamide] to `CC1(NS(=O)(=O)c2ccccc2-c2ccc(-c3ccc(N)nc3)c(F)c2)CCC1` [Example 353, 4′-(6-aminopyridin-3-yl)-3′-fluoro-N-(1-methylcyclobutyl)-[1,1′-biphenyl]-2-sulfonamide], the Ki falls from 4.3 nM to 1.4 nM (3.1-fold).

`Nc1ccc(-c2ccc(-c3ccccc3S(=O)(=O)NC3CCCCC3)cc2F)cn1` [Example 346, 4′-(6-Aminopyridin-3-yl)-N-cyclohexyl-3′-fluoro-[1,1′-biphenyl]-2-sulfonamide] and `Nc1ccc(-c2ccc(-c3ccccc3S(=O)(=O)N3CCC(CCO)CC3)cc2F)cn1` [Example 359] are within 1.5-fold of each other in Ki: 4.5 nM for the first, 4.3 nM for the second.

Compared with `CC(C)(NS(=O)(=O)c1ccccc1-c1ccc(-c2ccc(N)nc2)c(F)c1)C(F)(F)F` [Example 350, 4′-(6-aminopyridin-3-yl)-3′-fluoro-N-(1,1,1-trifluoro-2-methylpropan-2-yl)-[1,1′-biphenyl]-2-sulfonamide], `CC(C)(C)OC(=O)N1CC(O)(CNS(=O)(=O)c2ccccc2-c2ccc(-c3ccc(N)nc3)c(F)c2)C1` [Example 357, tert-butyl 3-((4′-(6-aminopyridin-3-yl)-3′-fluoro-[1,1′-biphenyl]-2-ylsulfonamido)methyl)-3-hydroxyazetidine-1-carboxylate] is 48-fold higher in Ki: 2.4 nM for the first, 114 nM for the second.

First: C[C@@H](CO)NS(=O)(=O)c1ccccc1-c1ccc(-c2cnc3[nH]ccc3c2)c(F)c1 [Example 362, 3′-Fluoro-N-[(1S)-2-hydroxy-1-methylethyl]-4′-(1H-pyrrolo[2,3-b]pyridin-5-yl)biphenyl-2-sulfonamide]
Second: C[C@H](CO)NS(=O)(=O)c1ccccc1-c1ccc(-c2cnc3[nH]ccc3c2)c(F)c1 [Example 363, 3′-Fluoro-N-[(1R)-2-hydroxy-1-methylethyl]-4′-(1H-pyrrolo[2,3-b]pyridin-5-yl)biphenyl-2-sulfonamide]
The Ki of the first is 2-fold higher: 1.2 nM for the first, 0.6 nM for the second. The second binds more tightly here.

First: O=C1NCC[C@@H]1NS(=O)(=O)c1ccccc1-c1ccc(-c2cnc3[nH]ccc3c2)c(F)c1 [Example 364, 3′-Fluoro-N-[(3S)-2-oxopyrrolidin-3-yl]-4′-(1H-pyrrolo[2,3-b]pyridin-5-yl)biphenyl-2-sulfonamide]
Second: NS(=O)(=O)c1ccccc1-c1ccc(-c2cnc3[nH]ccc3c2)c(F)c1 [Example 368, 3′-Fluoro-4′-(1H-pyrrolo[2,3-b]pyridin 5-yl)biphenyl-2-sulfonamide]
The Ki of the first is 5.3-fold lower: 2.5 nM for the first, 13.2 nM for the second. The first binds more tightly here.

`CN(C)S(=O)(=O)c1ccccc1-c1ccc(-c2cnc3[nH]ccc3n2)c(F)c1` [Example 370, 3′-Fluoro-N,N-dimethyl-4′-(5H-pyrrolo[2,3-b]pyrazin-2-yl)biphenyl-2-sulfonamide] and `CNS(=O)(=O)c1ccccc1-c1ccc(-c2cnc3[nH]ccc3n2)c(F)c1` [Example 379, 3′-Fluoro-N-methyl-4′-(5H-pyrrolo[2,3-b]pyrazin-2-yl)biphenyl-2-sulfonamide] are within 1.5-fold of each other in Ki: 1.9 nM for the first, 1.3 nM for the second.

Going from `CC(C)(C)NS(=O)(=O)c1ccccc1-c1ccc(-c2cnc3[nH]ccc3n2)c(F)c1` [Example 371, N-tert-Butyl-3′-fluoro-4′-(5H-pyrrolo[2,3-b]pyrazin-2-yl)biphenyl-2-sulfonamide] to `O=S(=O)(c1ccccc1-c1ccc(-c2cnc3[nH]ccc3n2)c(F)c1)N1CCCCC1` [Example 374, 2-[3-Fluoro-2′-(piperidin-1-ylsulfonyl)biphenyl-4-yl)-5H-pyrrolo[2,3-b]pyrazine], the Ki rises from 0.7 nM to 1.2 nM (1.7-fold). The first binds more tightly here.

First: O=S1(=O)CCN(S(=O)(=O)c2ccccc2-c2ccc(-c3cnc4[nH]ccc4n3)c(F)c2)CC1 [Example 382, 2-{2′-[(1,1-Dioxidothiomorpholin-4-yl)sulfonyl]-3-fluorobiphenyl-4-yl}-5H-pyrrolo[2,3-b]pyrazine]
Second: O=S1(=O)CCN(S(=O)(=O)c2ccccc2-c2ccc(-c3cnc4c(c3)OCCN4)c(F)c2)CC1 [Example 392]
The Ki of the first is 1.8-fold lower: 0.5 nM for the first, 0.9 nM for the second.

First: CSc1ccc(F)cc1-c1ccc(-c2cnc3[nH]ccc3n2)c(F)c1 [Example 383]
Second: C[C@@H](CO)NS(=O)(=O)c1ccccc1-c1ccc(-c2cnc3c(c2)OCCN3)c(F)c1 [Example 388, 4′-(3,4-Dihydro-2H-pyrido[3,2-b]l[1,4]oxazin-7-yl)-3′-fluoro-N-[(1S)-2-hydroxy-1-methylethyl]biphenyl-2-sulfonamide]
The Ki of the first is 4.6-fold higher: 7.9 nM for the first, 1.7 nM for the second.

First: O=S(=O)(c1ccccc1-c1ccc(-c2cnc3c(c2)OCCN3)c(F)c1)N1CCCCC1 [Example 386, 7-[3-Fluoro-2′-(piperidin-1-ylsulfonyl)biphenyl-4-yl]-3,4-dihydro-2H-pyrido[3,2-b][1,4]oxazine]
Second: NC1CCN(S(=O)(=O)c2ccccc2-c2ccc(-c3cnc4c(c3)OCCN4)c(F)c2)CC1 [Example 389, 1-{[4′-(3,4-Dihydro-2H-pyrido[3,2-b][1,4]oxazin-7-yl)-3′-fluorobiphenyl-2-yl]sulfonyl}piperidin-4-amine]
The Ki of the first is 7.3-fold lower: 1.8 nM for the first, 13.1 nM for the second. The first binds more tightly here.

`C[C@H](CO)NS(=O)(=O)c1ccccc1-c1ccc(-c2cnc3c(c2)OCCN3)c(F)c1` [Example 390, 4′-(3,4-Dihydro-2H-pyrido[3,2-b][1,4]oxazin-7-yl)-3′-fluoro-N-[(1R)-2-hydroxy-1-methylethyl]biphenyl-2-sulfonamide] gave a Ki of 0.4 nM.

Same assay, conditions: human FLAP wild type, Table 6 (additional runs)

Going from `Fc1cc(-c2cccnc2OCC2CC2)ccc1-c1cnc2[nH]ccc2n1` [Example 400, 2-{4-[2-(Cyclopropylmethoxy)pyridin-3-yl]-2-fluorophenyl}-5H-pyrrolo[2,3-b]pyrazine] to `Nc1cnc(-c2ccc(-c3cccnc3OC3CCCCC3)cc2F)cn1` [Example 403, 5-{4-[2-(Cyclohexyloxy)pyridin-3-yl]-2-fluorophenyl}pyrazin-2-amine], the Ki rises from 14.1 nM to 69.8 nM (5-fold). The first binds more tightly here.

Going from `N#Cc1nc(-c2ccc(-c3ccccc3S(=O)(=O)NCCO)cc2F)cnc1N` [Example 413, 4′-(5-Amino-6-cyanopyrazin-2-yl)-3′-fluoro-N-(2-hydroxyethyl)biphenyl-2-sulfonamide] to `CC(C)(C)NS(=O)(=O)c1ccccc1-c1ccc(-c2cnc(N)c(C#N)n2)c(F)c1` [Example 434, 4′-(5-Amino-6-cyanopyrazin-2-yl)-N-tert-butyl-3′-fluorobiphenyl-2-sulfonamide], the Ki falls from 18.6 nM to 1.1 nM (17-fold).

Going from `N#Cc1nc(-c2ccc(-c3ccccc3S(=O)(=O)N3CCNC(=O)C3)cc2F)cnc1N` [Example 414, 3-Amino-6-{3-fluoro-2′-[(3-oxopiperazin-1-yl)sulfonyl]biphenyl-4-yl}pyrazine-2-carbontrile] to `Cc1nc(-c2ccc(-c3ccccc3S(N)(=O)=O)cc2F)cnc1N` [Example 446, 4′-(5-Amino-6-methylpyrazin-2-yl)-3′-fluorobiphenyl-2-sulfonamide], the Ki rises from 65.5 nM to 304 nM (4.6-fold). The first binds more tightly here.

Going from `CC(C)(C)NS(=O)(=O)c1ccccc1-c1ccc(-c2cnc3ncccc3c2)c(F)c1` [Example 419, N-tert-Butyl-3′-fluoro-4′-(1,8-naphthyridin-3-yl)biphenyl-2-sulfonamide] to `CC(C)(C)NS(=O)(=O)c1ccccc1-c1ccc(-c2cnc3cc[nH]c3c2)c(F)c1` [Example 425, N-tert-Butyl-3′-fluoro-4′-(1H-pyrrolo[3,2-b]pyridin-6-yl)biphenyl-2-sulfonamide], the Ki falls from ~1370 nM to 2.3 nM (600-fold). The second binds more tightly here.

Compared with `CC(C)(C)NS(=O)(=O)c1ccccc1-c1ccc(-c2ccc3[nH]ccc3c2)c(F)c1` [Example 421, N-tert-Butyl-3′-fluoro-4′-(1H-indol-5-yl)biphenyl-2-sulfonamide], `CC(C)(C)NS(=O)(=O)c1ccccc1-c1ccc(-c2cnc(N)c(F)c2)c(F)c1` [Example 430, 4′-(6-Amino-5-fluoropyridin-3-yl)-N-tert-butyl-3′-fluorobiphenyl-2-sulfonamide] is 5.5-fold lower in Ki: 28.3 nM for the first, 5.1 nM for the second.

First: CC(C)(C)NS(=O)(=O)c1ccccc1-c1ccc(-c2ccc(N)cn2)c(F)c1 [Example 427, 4′-(5-Aminepyridin-2-yl)-N-tert-butyl-3′-fluoro-biphenyl-2-sulfonamide]
Second: CC(C)(C)NS(=O)(=O)c1ccccc1-c1ccc(-c2cnc(N)c(Br)n2)c(F)c1 [Example 442, 4′-(5-Amino-6-bromopyrazin-2-yl)-N-tert-butyl-3′-fluorobiphenyl-2-sulfonamide]
The Ki of the first is 49-fold higher: 43.9 nM for the first, 0.9 nM for the second.

First: CC(C)(C)NS(=O)(=O)c1ccccc1-c1ccc(-c2cnc3c(c2)CCN3)c(F)c1 [Example 431, N-tert-Butyl-4′-(2,3-dihydro-1H-pyrrolo[2,3-b]pyridin-5-yl)-3′-fluorobiphenyl-2-sulfonamide]
Second: Cc1nc(-c2ccc(-c3ccccc3S(=O)(=O)NC(C)(C)C)cc2F)cnc1N [Example 445, 4′-(5-Amino-6-methylpyrazin-2-yl)-N-tert-butyl-3′-fluorobiphenyl-2-sulfonamide]
The Ki of the first is 1.6-fold higher: 0.8 nM for the first, 0.5 nM for the second. The second binds more tightly here.

First: COc1nc(-c2ccc(-c3ccccc3S(=O)(=O)NC(C)(C)C)cc2F)cnc1N [Example 433, 4′-(5-Amino-6-methoxypyrazin-2-yl)-N-tert-butyl-3′-fluorobiphenyl-2-sulfonamide]
Second: CC(C)(C)NS(=O)(=O)c1ccccc1-c1ccc(-c2nnc(N)s2)c(F)c1 [Example 438, 4′-(5-amino-1,3,4-thiadiazol-2-yl)-N-(tert-butyl)-3′-fluoro-[1,1′-biphenyl]-2-sulfonamide]
The Ki of the first is 1.6-fold higher: 1.1 nM for the first, 0.7 nM for the second.

Same assay, conditions: human FLAP wild type, a calculated value of 0.000 indicates Ki less than 1 nM

`O=S1(=O)CCN(S(=O)(=O)c2ccccc2-c2ccc(-c3cnc4[nH]ccc4n3)c(F)c2)CC1` [Example 382, 2-{2′-[(1,1-Dioxidothiomorpholin-4-yl)sulfonyl]-3-fluorobiphenyl-4-yl}-5H-pyrrolo[2,3-b]pyrazine] and `C[C@H](CO)NS(=O)(=O)c1ccccc1-c1ccc(-c2cnc3c(c2)OCCN3)c(F)c1` [Example 390, 4′-(3,4-Dihydro-2H-pyrido[3,2-b][1,4]oxazin-7-yl)-3′-fluoro-N-[(1R)-2-hydroxy-1-methylethyl]biphenyl-2-sulfonamide] cannot be ordered by Ki: < 1 nM for the first, < 1 nM for the second.
